“Also recorded” adds a separate entry of the source.
How the values were obtained:
Format in all cases: physicochemical
[1] = Foam height and foam stability of formulation; conditions: Reinigungsformulierung enthaltend Dinatriumlaurylsuccinat (wässrig); for h1: Schaumhöhe 5 Minuten nach dem Mischen; for h1 / h0: Lösung mit 0,5 % WAS; for h0: Schaumhöhe eine Minute nach dem Mischen; for Stabilität: Schaumstabilität (h1/h0)*100
Method: Die Schaumhöhe der Formulierungen wurde nach folgender Methode ermittelt: In einem 400 ml Becher wurden 100 g einer wässrigen Lösung mit 0,5 % WAS hergestellt. Für eine Minute wurde die Lösung bei […] runden […] wurde die […] Minute […]0) und 5 […]. Die Schaumstabilität in % ergibt sich dann über (h1/h0)*100.

[2] = pH of cleaning formulation after addition of terpene ether
[3] = Appearance of cleaning formulation after 24 h
[4] = Visual evaluation of foam (foam appearance, bubble size); parameters: key to Blasengröße nach 1 min. / Blasengröße nach 5 min.: klein (1); mittel (2); mittel-groß (3); groß (4); sehr groß (5); key to Aussehen des Schaums nach 1 min. / Aussehen des Schaums nach 5 min.: verschwindend (1); locker (2); mittelkompakt (3); sehr kompakt (4); conditions: Reinigungsformulierung enthaltend Dinatriumlaurylsuccinat (wässrig)
Method: Die Qualität des Schaums wurde visuell nach der folgenden Methode festgestellt: 100 g der Lösung mit 0,5 % WAS wurden in einen 250 ml Glaszylinder mit Schraubverschluss und einem Innendurchmesser von 35 mm überführt. Der Zylinder wurde 10 mal gedreht und die Blasengröße und die Schaumkompaktheit wurden nach einer Minute nach dem Mischen und nach 5 Minuten ermittelt. Dabei erfolgte die Beurteilung auf der Grundlage der folgenden beschreibenden Parameter:
Aussehen des Schaums: verschwindend (1), locker (2), mittelkompakt (3), sehr kompakt (4)
Blasengröße: klein (1), mittel (2), mittel-groß (3), groß (4), sehr groß (5) Tabelle 4: […]

[5] = Brookfield viscosity (25°C) of cleaning formulation 24 h after addition of terpene ether
Method: Im Rahmen der vorliegenden Erfindung wird die Brookfield-Viskosität einer wässrigen Zusammensetzung vorzugsweise mittels einem RTV Brookfield-Viskosimeter bei 25°C ermittelt, besonders bevorzugt mit einer Spindel # 3 oder # 4.
Die in Tabelle 1 angegebene Reinigungsformulierung wurde untersucht. Tabelle 1: Reinigungsformulierung (WAS 15 %)
Zu dieser Formulierung wurden NP 1 oder NP 27 gegeben. Die gemessenen Brookfield-Viskositätswerte nach 24 Stunden werden in Tabelle 2 und 3 zusammengefasst. Tabelle 2: Brookfield-Viskosität (25°C)
Zu dieser Formulierung wurden NP 1 oder NP 27 sowie danach Natriumchlorid gegeben. Die gemessenen Brookfield-Viskositätswerte nach 24 Stunden werden in den folgenden Tabellen zusammengefasst. Tabelle 13: Brookfield-Viskosität (25°C)

[6] = Reinigungsformulierung enthaltend Coco Glucosid, +0,5 %
[7] = Reinigungsformulierung enthaltend Coco Glucosid, +1 %
[8] = Reinigungsformulierung enthaltend Coco Glucosid, +5 %
[9] = Reinigungsformulierung enthaltend Dinatriumlaurylsuccinat (wässrig), +0,5 %
[10] = Reinigungsformulierung enthaltend Dinatriumlaurylsuccinat (wässrig), +1 %
[11] = Reinigungsformulierung enthaltend Dinatriumlaurylsuccinat (wässrig), +5 %
[12] = Reinigungsformulierung enthaltend Dinatriumlaurylsuccinat (wässrig), +0,5 %, nach 24 Stunden
[13] = Reinigungsformulierung enthaltend Dinatriumlaurylsuccinat (wässrig), +1 %, nach 24 Stunden
[14] = Reinigungsformulierung enthaltend Dinatriumlaurylsuccinat (wässrig), +5 %, nach 24 Stunden
[15] = Reinigungsformulierung enthaltend Natriumlaurylethersulfat, Dinatriumcocoamphodiacetat, 0,5 % NaCl, +0,5 %, nach 24 Stunden
[16] = Reinigungsformulierung enthaltend Natriumlaurylethersulfat, Dinatriumcocoamphodiacetat, 0,5 % NaCl, +0,25 %, nach 24 Stunden
[17] = Reinigungsformulierung enthaltend Natriumlaurylethersulfat, Dinatriumcocoamphodiacetat, 0,5 % NaCl, +1 %, nach 24 Stunden
[18] = Reinigungsformulierung enthaltend Natriumlaurylethersulfat, Dinatriumcocoamphodiacetat, 0,5 % NaCl, +2 %, nach 24 Stunden
[19] = Reinigungsformulierung enthaltend Natriumlaurylethersulfat, Dinatriumcocoamphodiacetat, 1 % NaCl, +0,5 %, nach 24 Stunden
[20] = Reinigungsformulierung enthaltend Natriumlaurylethersulfat, Dinatriumcocoamphodiacetat, 1 % NaCl, +0,25 %, nach 24 Stunden
[21] = Reinigungsformulierung enthaltend Natriumlaurylethersulfat, Dinatriumcocoamphodiacetat, 1 % NaCl, +1 %, nach 24 Stunden
[22] = Reinigungsformulierung enthaltend Natriumlaurylethersulfat, Dinatriumcocoamphodiacetat, 1 % NaCl, +2 %, nach 24 Stunden
[23] = Reinigungsformulierung enthaltend Natriumlaurylethersulfat, Dinatriumcocoamphodiacetat, +0,5 %, nach 24 Stunden
[24] = Reinigungsformulierung enthaltend Natriumlaurylethersulfat, Dinatriumcocoamphodiacetat, +0,25 %, nach 24 Stunden
[25] = Reinigungsformulierung enthaltend Natriumlaurylethersulfat, Dinatriumcocoamphodiacetat, +1 %, nach 24 Stunden
[26] = Reinigungsformulierung enthaltend Natriumlaurylethersulfat, Dinatriumcocoamphodiacetat, +2 %, nach 24 Stunden

CC1(C)C2CCC1(C)C(OCC1COC(=O)O1)C2 (stereo not drawn) [NP 27]
h1 ([1]; 0,5 %): 210 mm
h0 ([1]; 0,5 %): 240 mm
Stabilität ([1]; 0,5 %): 88%
h1 ([1]; 1 %): 180 mm
h0 ([1]; 1 %): 215 mm
Stabilität ([1]; 1 %): 84%
h1 ([1]; 5 %): 175 mm
h0 ([1]; 5 %): 210 mm
Stabilität ([1]; 5 %): 83%
pH [2, 6]: 6
pH [2, 7]: 6
pH [2, 8]: 6,1
pH [2, 9]: 6,3
pH [2, 10]: 6,35
pH [2, 11]: 6,4
Aussehen nach 24 h [3, 6]: transparent Gel-flüssig
Aussehen nach 24 h [3, 7]: opaleszent Phasenseparation
Aussehen nach 24 h [3, 8]: weiß Phasenseparation
Aussehen nach 24 h [3, 9]: transparent; also recorded: flüssig
Aussehen nach 24 h [3, 10]: transparent and Gel
Aussehen nach 24 h [3, 11]: Weiß and Flüssig
Aussehen nach 24 h ([3]; Reinigungsformulierung enthaltend Natriumlaurylethersulfat, Dinatriumcocoamphodiacetat, 0,5 % NaCl, +0,5 %): transparent Gel
Aussehen nach 24 h ([3]; Reinigungsformulierung enthaltend Natriumlaurylethersulfat, Dinatriumcocoamphodiacetat, 0,5 % NaCl, +0,25 %): transparent Gel-flüssig
Aussehen nach 24 h ([3]; Reinigungsformulierung enthaltend Natriumlaurylethersulfat, Dinatriumcocoamphodiacetat, 0,5 % NaCl, +1 %): transparent Gel
Aussehen nach 24 h ([3]; Reinigungsformulierung enthaltend Natriumlaurylethersulfat, Dinatriumcocoamphodiacetat, 0,5 % NaCl, +2 %): opaleszent flüssig
Aussehen nach 24 h ([3]; Reinigungsformulierung enthaltend Natriumlaurylethersulfat, Dinatriumcocoamphodiacetat, 1 % NaCl, +0,5 %): transparent Gel
Aussehen nach 24 h ([3]; Reinigungsformulierung enthaltend Natriumlaurylethersulfat, Dinatriumcocoamphodiacetat, 1 % NaCl, +0,25 %): transparent Gel
Aussehen nach 24 h ([3]; Reinigungsformulierung enthaltend Natriumlaurylethersulfat, Dinatriumcocoamphodiacetat, 1 % NaCl, +1 %): transparent Gel
Aussehen nach 24 h ([3]; Reinigungsformulierung enthaltend Natriumlaurylethersulfat, Dinatriumcocoamphodiacetat, 1 % NaCl, +2 %): weiß flüssig
Aussehen nach 24 h ([3]; Reinigungsformulierung enthaltend Natriumlaurylethersulfat, Dinatriumcocoamphodiacetat, +0,5 %): transparent Gel-flüssig
Aussehen nach 24 h ([3]; Reinigungsformulierung enthaltend Natriumlaurylethersulfat, Dinatriumcocoamphodiacetat, +0,25 %): transparent flüssig
Aussehen nach 24 h ([3]; Reinigungsformulierung enthaltend Natriumlaurylethersulfat, Dinatriumcocoamphodiacetat, +1 %): transparent Gel
Aussehen nach 24 h ([3]; Reinigungsformulierung enthaltend Natriumlaurylethersulfat, Dinatriumcocoamphodiacetat, +2 %): opaleszent flüssig
Aussehen des Schaums nach 1 min. ([4]; +0,5 %): 2
Aussehen des Schaums nach 5 min. ([4]; +0,5 %): 1
Blasengröße nach 1 min. ([4]; +0,5 %): 4
Blasengröße nach 5 min. ([4]; +0,5 %): 5
Aussehen des Schaums nach 1 min. ([4]; +1 %): 3
Aussehen des Schaums nach 5 min. ([4]; +1 %): 1
Blasengröße nach 1 min. ([4]; +1 %): 3
Blasengröße nach 5 min. ([4]; +1 %): 5
Aussehen des Schaums nach 1 min. ([4]; +5 %): 3
Aussehen des Schaums nach 5 min. ([4]; +5 %): 1
Blasengröße nach 1 min. ([4]; +5 %): 4
Blasengröße nach 5 min. ([4]; +5 %): 5
BF-Viskosität (2,5 rpm) [5, 6]: 16400 mPas
BF-Viskosität (5 rpm) [5, 6]: 15800 mPas
BF-Viskosität (2,5 rpm) [5, 7]: 1000 mPas
BF-Viskosität (5 rpm) [5, 7]: 900 mPas
BF-Viskosität (2,5 rpm) [5, 8]: 80 mPas
BF-Viskosität (5 rpm) [5, 8]: 60 mPas
BF-Viskosität (2,5 rpm) [5, 12]: 6800 mPas
BF-Viskosität (5 rpm) [5, 12]: 6800 mPas
BF-Viskosität (2,5 rpm) [5, 13]: 30400 mPas
BF-Viskosität (5 rpm) [5, 13]: 27800 mPas
BF-Viskosität (2,5 rpm) [5, 14]: 60 mPas
BF-Viskosität (5 rpm) [5, 14]: 40 mPas
BF-Viskosität (2,5 rpm) [5, 15]: 35200 mPas
BF-Viskosität (5 rpm) [5, 15]: 31000 mPas
BF-Viskosität (2,5 rpm) [5, 16]: 19600 mPas
BF-Viskosität (5 rpm) [5, 16]: 19000 mPas
BF-Viskosität (2,5 rpm) [5, 17]: 40800 mPas
BF-Viskosität (5 rpm) [5, 17]: 36800 mPas
BF-Viskosität (2,5 rpm) [5, 18]: 7400 mPas
BF-Viskosität (5 rpm) [5, 18]: 7200 mPas
BF-Viskosität (2,5 rpm) [5, 19]: 46400 mPas
BF-Viskosität (5 rpm) [5, 19]: 40400 mPas
BF-Viskosität (2,5 rpm) [5, 20]: 33200 mPas
BF-Viskosität (5 rpm) [5, 20]: 29000 mPas
BF-Viskosität (2,5 rpm) [5, 21]: 43200 mPas
BF-Viskosität (5 rpm) [5, 21]: 38800 mPas
BF-Viskosität (2,5 rpm) [5, 22]: 4000 mPas
BF-Viskosität (5 rpm) [5, 22]: 3800 mPas
BF-Viskosität (2,5 rpm) [5, 23]: 15600 mPas
BF-Viskosität (5 rpm) [5, 23]: 15000 mPas
BF-Viskosität (2,5 rpm) [5, 24]: 9200 mPas
BF-Viskosität (5 rpm) [5, 24]: 8700 mPas
BF-Viskosität (2,5 rpm) [5, 25]: 27600 mPas
BF-Viskosität (5 rpm) [5, 25]: 25600 mPas
BF-Viskosität (2,5 rpm) [5, 26]: 12800 mPas
BF-Viskosität (5 rpm) [5, 26]: 12400 mPas
